Series [1] deals with cancer cells. In words: Suppression of cytotoxic activity of 2DG-treated αβ T processed cells by D-mannose. As to conditions: 2 mM D-mannose or L-mannose added to the culture with 2 mM 2DG. The class given is cell-based, human. The procedure:
(§1) The cytotoxic activity test by fluorescent staining was performed by using Terascan VPC2 (Minerva Tech K.K.). Cancer cell line K562 (leukemia cell line), Daudi (Burkitt's lymphoma cell line), and HOS (osteosarcoma cell line), and DLD1 (colon cancer cell line) were labeled for 30 minutes with 2.55 to 5 μg/mL of fluorescent dye Cellstein R-Calcein-AM solution (DOJINDO LABORATORIES). The labeled cancer cells and the αβ T processed cells were mixed at a ratio of 1:25, and the mixed cells were incubated for 2 to 4 hours in RPMI 1640 and 10% FBS (in the absence of IL-2). The cytotoxic activity was calculated by using changes in the fluorescence intensity of the cancer cells co-cultured with the αβ T processed cells as an index, assuming the fluorescence decay rate when treated with 1% NP40 (surfactant) as 100% (FIG. 2C).
Therefore, it was investigated whether or not the cytotoxic activity ability was suppressed by adding D-mannose to the processing of αβ T cells treated with 2DG.
In the preparation of Example 1, αβ T processed cells were prepared with the addition of 2 mM of D-mannose (Sigma-Aldrich Co. LLC) or L-mannose (Tokyo Chemical Industry Co., Ltd.), and the prepared αβ T processed cells were subjected to the measurement of cytotoxic activity by the method described in item 3.2.

Series [2] relates to αβ T processed cells. In words: Intracellular perforin production in αβ T processed cells (flow cytometry, MFI). The class given is cell-based, human. As to conditions: 2 mM D-mannose or L-mannose added to the culture with 2 mM 2DG; for Intracellular granzyme B: data not shown. The procedure: Next, it was verified whether or not mannose inhibited the increase in the amount of intracellular perforin of the αβ T processed cells treated with 2DG. In the preparation of Example 1, αβ T processed cells were prepared with the addition of 2 mM of D-mannose (Sigma-Aldrich Co. LLC) or L-mannose (Tokyo Chemical Industry Co., Ltd.), the prepared cells were treated with IntraPrep Permeabilization Reagent (Beckman Coulter, Inc.), and the expression level of the intracellular perforin was determined by staining the cells with APC-labeled anti-perforin antibodies. The stained cells were subjected to measurement by using a flow cytometer FACS CantoII (BD Biosciences), and the data were analyzed by using Kaluza (Beckman Coulter, Inc.) software. The Mean Fluorescence Intensity (MFI) value is mean fluorescence intensity, and reflects the expression level.
(Flow cytometry measures light scatter and fluorescence of single cells or particles in a stream.)

Another series concerns IL-2 receptor. Description: IL-2 receptor expression on αβ T processed cells (flow cytometry). It counts as cell-based, human. As to conditions: cells cultured with 2DG and D-mannose. As for the experimental part:
It is known that the intracellular perforin and granzyme B in effector cells are induced and expressed by the stimulation from IL-2 receptor on a T cell. Therefore, the expression of the IL-2 receptor was confirmed. […] The obtained resuspension was passed through a cell strainer to remove aggregates. The obtained cells were incubated for 1 hour on ice, together with PE/Cy5-labeled anti-IL-2R antibodies (BioLegend, Inc.), and FITC-labeled anti-CD3 antibodies (Beckman Coulter, Inc.), and after the washing of the incubated cells, the measurement was performed by using a flow cytometer FACS Cantoll (BD Biosciences). The data were analyzed by using Kaluza (Beckman Coulter, Inc.) software.

For series [3], the system named is αβ T processed cells. In words: Cytokine production of αβ T processed cells (Bio-plex). The class given is cell-based, human. The following applies: culture supernatant after 24 hours in RPMI 1640 + 10% FCS without IL-2; 4 healthy donor samples; vs cont. The procedure: The cytokine production ability of the αβ T processed cells prepared in Example 1 was determined by using Bio-plex “human cytokine G1 27 plex panel” (Bio-Rad Laboratories, Inc.) (FIG. 2A). Specifically, the αβ T processed cells prepared in Example 1 were replaced in a medium containing RPMI 1640 and 10% FCS in the absence of IL-2, and cultured. The culture supernatant after 24 hours from the start of the culture was recovered, and subjected to measurement.

Series [4] concerns αβ T processed cells. Description: Perforin and granzyme B in culture supernatant after PMA/ionomycin stimulation (ELISA). The class given is cell-based, human. As to conditions: after PMA (5 ng/ml) and ionomycin (0.5 μg/ml) stimulation; 4 healthy donor samples; vs cont. The procedure:
Furthermore, perforin and granzyme B in the culture supernatant after the degranulation due to the PMA (5 ng/ml) and ionomycin (0.5 μg/ml) stimulation were determined by using Human Perforin ELISA Kit and Human Granzyme B ELISA Kit (Abcam plc.), respectively (FIG. 2B).
For orientation: ELISA stands for enzyme-linked immunosorbent assay.

The test system of series [5] is Daudi (Burkitt's lymphoma cell line). Description: In vitro cytotoxic activity against cultured cells (Calcein-AM, Terascan). It counts as cell-based, human. The following applies: cancer cells:αβ T processed cells 1:25, 2 to 4 hours; vs conventional method. As for the experimental part: as §1
The next series has as its system Daudi cells. Description: Degranulation: CD107a exposure on CD8+ T cells in co-culture with cancer cells. As to conditions: co-culture with Daudi cells 25:1, 6 hours. The class given is cell-based, human. The source says:
(§2) In the αβ T processed cells treated with 2DG as described above, secretions of effector factors such as cytokines, perforin, and granzyme B were promoted, and the cytotoxic activity was enhanced. Since exposure of CD107a localized in an intracellular vesicle onto the cell surface serves as an index of degranulation for the release of an effector factor from a cytotoxic T cell or a NK cell, the exposure of CD107a onto the cell surface by co-culture with cancer cells having different cytotoxicity was detected.
(§3) In the presence of APC-labeled anti-CD107a antibodies (BioLegend, Inc.), the αβ T processed cells and cancer cells were mixed at a ratio of 25:1, and the mixed cells were cultured for 6 hours. After the washing of the cultured cells, the washed cells were stained with PE-labeled anti-CD8 antibodies (Beckman Coulter, Inc.). The cells thus stained were subjected to measurement by using a flow cytometer FACS CantoII (BD Biosciences), and the obtained data were analyzed by using Kaluza (Beckman Coulter, Inc.) software (FIG. 2D).

In another series the test system is K562 cells. Described as above. The following applies: co-culture with K562 cells 25:1, 6 hours. The class given is cell-based, human.
Description: as §2, §3

The subject of series [6] is sugar chains of αβ T processed cells. Description: LC-MS mass spectrometry analysis of sugar chains on cell surface. It counts as cell-based, human. As to conditions: summary of Table 1. The source says:
From the αβ T processed cells, sugar chains were purified and labeled by using BlotGlyco (Sumitomo Bakelite Co., Ltd.), and then the purified and labeled sugar chains were subjected to LC-MS mass spectrometry analysis (FIG. 5A).

Another series relates to galectin-3. In words: Galectin-3 binding ability of αβ T processed cells (flow cytometry). The class given is cell-based. As to conditions: cells cultured with 0 to 4 mM of 2DG; recombinant galectin-3, 4° C., 30 minutes; vs cont. The procedure:
The galectin-3 binding ability was detected with FITC-labeled anti-mouse IgG antibodies (Jackson ImmunoResearch Laboratories, Inc.). In this regard, as an experimental control of the galectin-3 binding, addition of 0.1 M of lactose (Sigma-Aldrich Co. LLC) for inhibiting the binding of galectin to sugar chains was performed. The measurement was performed by using a flow cytometer FACS CantoII (BD Biosciences), and the data were analyzed by using Kaluza (Beckman Coulter, Inc.) software.

In series [7] the test system is cancer cells. In words: Cytotoxic activity of αβ T processed cells cultured with a glycolytic inhibitor. It counts as cell-based, human. The following applies: cells prepared with oxamate (2 mM) or bromo pyruvate (10 μM); vs cells not treated with 2DG. The procedure:
as §1
By using the method described in 3.2. of Example 3, the cytotoxic activity against each of cancer cells, by the αβ T processed cells treated with oxamate (2 mM) or bromo pyruvate (10 μM), which is a glycolytic inhibitor, was examined.

Structures are written as SMILES.

Consider `O=C[C@@H](O)[C@@H](O)[C@H](O)[C@H](O)CO` [D-mannose], for which the “Cytotoxic activity of αβ T processed cells cultured with 2DG plus mannose” value with cancer cells [1] is on record as “reduced the effect of 2DG”. Moreover, in the series with αβ T processed cells [2], the “Intracellular perforin expression level (MFI)” value was “reduced the effect of 2DG” and the “Intracellular granzyme B” value is “the results were also similar”. For the same compound, the “Expression of the IL-2 receptor on a cell surface” value in the series with IL-2 receptor is recorded as “suppressed”.
Turning to `OCC1O[C@H](O)C[C@@H](O)[C@@H]1O` (mixture of isomers) [2DG, 2-deoxy-d-glucose], the “Secretion of cytokines (IL-2, IFN-γ, TNFα)” value in the series with αβ T processed cells [3] was “increased by 2DG treatment in 3 cases out of 4 cases”. In the series on αβ T processed cells [4], the “Secretion of granzyme B” value is “increased by 2DG treatment in 3 cases out of 4 cases”. In the series with αβ T processed cells [4], the Secretion of perforin entry is reported as “increased by 2DG treatment in 3 cases out of 4 cases”. For the same compound, the “Cytotoxic activity against Daudi” value in series [5] is “had not been increased”. Besides, the results for the “Exposure of CD107a onto the cell surface (degranulation of CD8+ T cells)” value in the series with Daudi cells and with K562 cells were “not promoted” and “promoted”, respectively. Further, in [6], the “Effect of 2DG treatment on N-glycans (sugar chain analysis)” value is reported as “abnormal increase of the mature branched N-glycan in which deoxyhexose had been introduced”. The Galectin-3 binding ability result with galectin-3 was “reduced in a dose-dependent manner”.
`O=C[C@H](O)[C@H](O)[C@@H](O)[C@@H](O)CO` [L-mannose]: in the series on cancer cells [1], the “Cytotoxic activity of αβ T processed cells cultured with 2DG plus mannose” value is “no influence on the cytotoxic activity of 2DG”. In the series on αβ T processed cells [2], the “Intracellular perforin expression level (MFI)” value is reported as “no influence” and the “Intracellular granzyme B” value is reported as “the results were also similar”.
Turning to `NC(=O)C(=O)O` [oxamate], the “Cytotoxic activity against cancer cells” value in the series on cancer cells [7] is “no enhancement of the cytotoxic activity was observed”.

(Values after patent US20210002611A1, “IMPROVED ALPHA-BETA T PROCESSED CELL PRODUCTION METHOD” (OSAKA UNIVERSITY, priority 2018, published 2021).)
